Consider two molecules from patent US20260034103A1, “COMPOSITIONS AND METHODS FOR IMPROVING MEMORY AND COGNITION” (priority 2022, published 2026).

In one assay the test system is Long-Evans rats. As to the kind of experiment: Novel object recognition test, scopolamine-induced cognitive impairment. In kind it is in vivo, rat. As to conditions: scopolamine 0.1 mg/kg SC. How it is done: Total exploration time of two identical objects in the acquisition trial was measured manually and indicated as the mean±SEM (n=8). No statistical difference was found in the total exploration time among the different groups by one-way ANOVA (P=0.115).
NDI was calculated using the following equation: novel object interaction time/total interaction time×100(%). Data are represented as the mean±SEM (n=8). Significant difference from control group was indicated by ***P<0.001 (Student's t-test). Significant differences from scopolamine-treated vehicle group were indicated by ##P<0.01 (Dunnett test). Significant difference from scopolamine-treated vehicle group were indicated by †††P<0.001 (Student's t-test).
Exploration time of each object in retention trial was measured manually and presented as the mean±SEM (n=8). Significant differences from familiar object interaction were indicated by **P<0.01, *P<0.05 (paired t-test).
A novel object recognition test (which evaluates visual learning and memory) was conducted to investigate the effect of compound 1 on scopolamine-induced cognitive impairment in Long-Evans rats. Donepezil was used as a positive control. Scopolamine at 0.1 mg/kg SC reduced the novelty discrimination index (NDI) a measure of cognitive function (FIGS. 4-6).

The subject of a further assay is Wistar rats. In words: Novel object recognition test, subchronic PCP-induced cognitive impairment. In kind it is in vivo, rat. The settings on record: PCP 5 mg/kg twice daily for 7 days IP. The method, then: The total exploration time of two identical objects in the acquisition trial was measured manually and indicated as the mean±SEM (n=10). No statistical difference was found in the total exploration time among the different groups by one-way ANOVA (P=0.340).
NDI was calculated using the following equation: novel object interaction time/total interaction time×100(%). Data are represented as the mean±SEM (n=10). Significant difference from control group was indicated by ***P<0.001 (Student's t-test). Significant differences from PCP-treated group were indicated by ##P<0.01, #P<0.05 (Dunnett test). Significant difference from PCP-treated group were indicated by ††P<0.01 (Student's t-test).
Exploration time of each object in retention trial was measured manually and presented as the mean±SEM (n=10). Significant differences from familiar object interaction were indicated by ***P<0.001, **P<0.01 (paired t-test).
A novel object recognition test was conducted to investigate the effect of SP-624 on subchronic PCP-induced cognitive impairment in Wistar rats. Clozapine was used as a positive control.

Consider `CN1[C@@H]2C[C@@H](OC(=O)[C@H](CO)c3ccccc3)C[C@H]1[C@@H]1O[C@@H]12` [Scopolamine, reference compound], for which the “novelty discrimination index (NDI)” value with Long-Evans rats is “reduced”.
With `c1ccc(C2(N3CCCCC3)CCCCC2)cc1` [PCP, reference compound], the “NDI compared with sub-chronic vehicle treatment” value in the assay on Wistar rats is recorded as “significantly decreased”.
